# Target: T1, recombinant human 17β-hydroxysteroid dehydrogenase type 1 (Homo sapiens, UniProt P14061)
# T1 construct: made in house; host or cells: Sf9 insect cells (baculovirus, Bac to Bac Expression System)
# T1 sequence (P14061 1-328): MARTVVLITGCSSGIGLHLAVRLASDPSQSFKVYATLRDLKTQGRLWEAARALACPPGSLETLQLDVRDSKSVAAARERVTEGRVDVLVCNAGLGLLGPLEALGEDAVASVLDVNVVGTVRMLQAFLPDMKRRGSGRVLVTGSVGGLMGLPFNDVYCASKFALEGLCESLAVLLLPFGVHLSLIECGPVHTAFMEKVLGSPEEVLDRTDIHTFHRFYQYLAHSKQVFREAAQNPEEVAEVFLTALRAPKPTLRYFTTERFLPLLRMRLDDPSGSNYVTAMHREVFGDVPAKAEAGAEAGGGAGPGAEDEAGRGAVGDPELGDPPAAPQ
# Test: Inhibition of recombinant human 17β-hydroxysteroid dehydrogenase type 1 (conversion of 3H-estrone to estradiol, HPLC radiodetection)
# Type: biochemical
# Conditions: inhibitor 100 nM; 30 nM 3H-estrone, 1 mM NADPH, 30 min at RT
# Procedure: 17β-HSD1 purification: Recombinant baculovirus was generated by the "Bac to Bac Expression System" (Invitrogen). Recombinant bacmid was transfected to Sf9 insect cells using "Cellfectin Reagent" (Invitrogen). 60h later cells were harvested; the microsomal fraction was isolated as described by Puranen et al. (1994). Aliquots were stored frozen until determination of enzymatic activity.
# Assay - Inhibition of recombinant human 17β-hydroxysteroid dehydrogenase type 1: Recombinant protein (0.1µg/ml) was incubated in 20 mM KH2PO4 pH 7.4 with 30 nM 3H-estrone and 1 mM NADPH for 30 min at RT, in the presence of potential inhibitors at concentrations of 1 µM or 0.1 µM. Inhibitor stock solutions were prepared in DMSO. Final concentration of DMSO was adjusted to 1 % in all samples. The enzyme reaction was stopped by addition of 10 % trichloroacetic acid (final concentration). Samples were centrifuged in a microtiter plate at 4000 rpm for 10 min. Supernatants were applied to reverse phase HPLC on a Waters Symmetry C18 column, equipped with a Waters Sentry Guard column. Isocratic HPLC runs were performed at RT at a flow rate of 1 ml/min of acetonitrile:water 48:52 as running solvent. Radioactivity was monitored in the eluate by a Packard Flow Scintillation Analyzer. Total radioactivity for estrone and estradiol were determined in each sample and percent conversion of estrone to estradiol was calculated according to the following formula: % conversion = 100 × ({(cpm estradiol in sample with inhibitor)/[(cpm estrone in sample with inhibitor)+(cpm estradiol in sample with inhibitor)]})/({(cpm estradiol in sample without inhibitor)/[(cpm estrone in sample without inhibitor)+(cpm estradiol in sample without inhibitor)]}). [formula] [formula]
# Table 19: Inhibition of 17β-HSD enzyme type I
row,Inhibition of rec 17β-HSD1 [%],Structure (SMILES)
1,40.6,COc1cc2c(cc1O)CCC1C2CCC2(C)C(=O)CC(CCCC(=O)N3CCCCC3)C12 (stereo not drawn) [Example 78]

# Same assay, conditions: inhibitor 1 µm; 30 nM 3H-estrone, 1 mM NADPH, 30 min at RT; read-out: Inhibition of rec 17β-HSD1
row,Structure (SMILES),inhibition [%]
1,"C[C@]12CC[C@@H]3c4ccc(O)cc4CC[C@H]3[C@@H]1[C@@H](CCCC(=O)N1CCOCC1)CC2(F)F [Example 91, 4-(17,17-Difluoro-3-hydroxy-estra-1,3,5(10)-trien-15a-yl)-1-morpholin-4-yl-butan-1-one]",85
2,CCCc1cc2c(cc1O)CC[C@H]1[C@@H]3[C@H](CCCC(=O)NCCOC)CC(=O)[C@@]3(C)CC[C@H]21 [Example 41],70.4
3,CCCc1cc2c(cc1O)CC[C@H]1[C@@H]3[C@H](CCCC(=O)NCc4cccnc4)CC(=O)[C@@]3(C)CC[C@H]21 [Example 32],79
4,CCCc1cc2c(cc1O)CC[C@H]1[C@@H]3[C@H](CCCC(=O)N(C)CCc4ccc(OC)c(OC)c4)CC(=O)[C@@]3(C)CC[C@H]21 [Example 38],76.7
5,"CCCc1cc2c(cc1O)CC[C@H]1[C@@H]3[C@H](CCCC(=O)NCc4ccccc4)CC(=O)[C@@]3(C)CC[C@H]21 [Example 2, N-Benzyl-4-(3-hydroxy-17-oxo-2-propyl-estra-1,3,5(10)-trien-15β-yl)-butyramide]",74.8
6,CCOc1cc2c(cc1O)CC[C@H]1[C@@H]3[C@@H](CCCC(=O)NCc4ccc5c(c4)OCO5)CC(=O)[C@@]3(C)CC[C@H]21 [Example 45],75.7
7,CCOc1cc2c(cc1O)CC[C@H]1[C@@H]3[C@@H](CCCC(=O)NC4CCCCC4)CC(=O)[C@@]3(C)CC[C@H]21 [Example 44],75
8,CCCc1cc2c(cc1O)CC[C@H]1[C@@H]3[C@H](CCCC(=O)Nc4ccc5cn[nH]c5c4)CC(=O)[C@@]3(C)CC[C@H]21 [Example 40],75.8
9,"CCCc1cc2c(cc1O)CC[C@H]1[C@@H]3[C@H](CCCC(=O)N4CCOCC4)CC(=O)[C@@]3(C)CC[C@H]21 [Example 6, 3-Hydroxy-15β-(4-morpholin-4-yl-4-oxo-butyl)-2-propyl-estra-1,3,5(10)-trien-17-one]",79.3
10,CCCc1cc2c(cc1O)CC[C@H]1[C@@H]3[C@H](CCCC(=O)N(C)Cc4ccccc4)CC(=O)[C@@]3(C)CC[C@H]21 [Example 37],74.7
11,CCCc1cc2c(cc1O)CC[C@H]1[C@@H]3[C@H](CCCC(=O)N4CCCCC4)CC(=O)[C@@]3(C)CC[C@H]21 [Example 36],78.1
12,CCCc1cc2c(cc1O)CC[C@H]1[C@@H]3[C@H](CCCC(=O)NCCc4c[nH]c5c(C)cccc45)CC(=O)[C@@]3(C)CC[C@H]21 [Example 34],71.9
13,"C[C@]12CC[C@@H]3c4ccc(O)cc4CC[C@H]3[C@@H]1[C@H](CCCC(=O)N1CCOCC1)CC2(F)F [Example 90, 4-(17,17-Difluoro-3-hydroxy-estra-1,3,5(10)-trien-15β-yl)-1-morpholin-4-yl-butan-1-one]",81.6
14,C[C@]12CC[C@@H]3c4ccc(OCc5ccccc5)cc4CC[C@H]3[C@@H]1[C@H](C/C=C/C(=O)N1CCOCC1)c1cnoc12 [161'],74
15,"COCCc1cc2c(cc1O)CC[C@H]1[C@@H]3[C@H](CCCC(=O)NCc4ccccc4)CC(=O)[C@@]3(C)CC[C@H]21 [Example 3, N-Benzyl-4-(3-hydroxy-2-(2-methoxy-ethyl)-17-oxo-estra-1,3,5(10)-trien-15β-yl)-butyramide]",71.2
16,CCOc1cc2c(cc1O)CC[C@H]1[C@@H]3[C@@H](CCCC(=O)NCCc4c[nH]c5c(C)cccc45)CC(=O)[C@@]3(C)CC[C@H]21 [Example 52],72.2
17,CCCc1cc2c(cc1O)CC[C@H]1[C@@H]3[C@H](CCCC(=O)NCc4ccc5c(c4)OCO5)CC(=O)[C@@]3(C)CC[C@H]21 [Example 30],73.6
18,CCCc1cc2c(cc1O)CC[C@H]1[C@@H]3[C@H](CCCC(=O)NCc4ccc(F)cc4F)CC(=O)[C@@]3(C)CC[C@H]21 [Example 42],71.7
19,"Cc1cnc(NC(=O)CC[C@@H]2CC(F)(F)[C@@]3(C)CC[C@@H]4c5ccc(O)cc5CC[C@H]4[C@H]23)s1 [Example 93, 3-(17,17-Difluoro-3-hydroxy-estra-1,3,5(10)-trien-15β-yl)-N-(5-methyl-thiazol-2-yl)-propionamide]",86.7

# Further lines, results first:
row,inhibition [%],Structure (SMILES)
1,71.7,COc1cc(CNC(=O)CC[C@@H]2CC(F)(F)[C@@]3(C)CC[C@@H]4c5ccc(O)cc5CC[C@H]4[C@H]23)cc(OC)c1 [Example 128]
2,90.6,CCN(CC)C(=O)CC[C@@H]1CC(F)(F)[C@@]2(C)CC[C@@H]3c4ccc(O)cc4CC[C@H]3[C@H]12 [Example 133]
3,70.6,COc1cc2c(cc1O)CC[C@H]1[C@@H]3[C@@H](CCCC(=O)NCc4ccccc4)CC(=O)[C@@]3(C)CC[C@H]21 [Example 71]
4,73.2,COc1cc2c(cc1O)CC[C@H]1[C@@H]3[C@@H](CCCC(=O)NC4CCCCC4)CC(=O)[C@@]3(C)CC[C@H]21 [Example 67]
5,92.5,C[C@]12CC[C@@H]3c4ccc(O)cc4CC[C@H]3[C@@H]1[C@H](CCC(=O)NC1CCCCC1)CC2(F)F [Example 121]
6,68.3,Cc1cccc2c(CCNC(=O)CCC[C@H]3CC(F)(F)[C@@]4(C)CC[C@@H]5c6ccc(O)cc6CC[C@H]5[C@H]34)c[nH]c12 [Example 111]
7,70.7,C[C@]12CC[C@@H]3c4ccc(O)cc4CC[C@H]3[C@@H]1[C@@H](CCCC(=O)NCc1ccc(O)c(O)c1)CC2(F)F [Example 109]
8,88.6,COc1ccc(CCN(C)C(=O)CC[C@@H]2CC(F)(F)[C@@]3(C)CC[C@@H]4c5ccc(O)cc5CC[C@H]4[C@H]23)cc1OC [Example 134]
9,68,C[C@]12CC[C@@H]3c4ccc(O)cc4CC[C@H]3[C@@H]1[C@@H](CCCC(=O)NCc1ccccc1)CC2(F)F [Example 106]
10,71.6,COc1cc2c(cc1O)CC[C@H]1[C@@H]3[C@@H](CCCC(=O)Nc4ccc5cn[nH]c5c4)CC(=O)[C@@]3(C)CC[C@H]21 [Example 83]
11,72,COc1cc2c(cc1O)CCC1C2CCC2(C)C(=O)CC(CCCC(=O)N3CCCCC3)C12 (stereo not drawn) [Example 78]
12,76.9,C[C@]12CC[C@@H]3c4ccc(O)cc4CC[C@H]3[C@@H]1[C@H](CCC(=O)NCc1ccccc1)CC2(F)F [Example 125]
13,71.9,CCOc1cc2c(cc1O)CC[C@H]1[C@@H]3[C@@H](CCCC(=O)N4CCCCC4)CC(=O)[C@@]3(C)CC[C@H]21 [Example 55]
14,77.9,C[C@]12CC[C@@H]3c4ccc(O)cc4CC[C@H]3[C@@H]1[C@H](CCC(=O)NCc1ccc3c(c1)OCO3)CC2(F)F [Example 122]
15,70.6,C[C@]12CC[C@@H]3c4ccc(O)cc4CC[C@H]3[C@@H]1[C@@H](CCCC(=O)NC1CCCCC1)CC2(F)F [Example 102]
16,69.7,CCOc1cc2c(cc1O)CC[C@H]1[C@@H]3[C@@H](CCCC(=O)Nc4ccc5cn[nH]c5c4)CC(=O)[C@@]3(C)CC[C@H]21 [Example 59]
17,82.4,COc1ccc(CCN(C)C(=O)CCC[C@H]2CC(F)(F)[C@@]3(C)CC[C@@H]4c5ccc(O)cc5CC[C@H]4[C@H]23)cc1OC [Example 116]
18,76.9,Cc1cccc2c(CCNC(=O)CC[C@@H]3CC(F)(F)[C@@]4(C)CC[C@@H]5c6ccc(O)cc6CC[C@H]5[C@H]34)c[nH]c12 [Example 129]
19,85,C[C@]12CC[C@@H]3c4ccc(O)cc4CC[C@H]3[C@@H]1[C@H](CCC(=O)NC1CC1)CC2(F)F [Example 120]
20,76.9,C[C@]12CC[C@@H]3c4ccc(O)cc4CC[C@H]3[C@@H]1[C@@H](CCCC(=O)N1CCCCC1)CC2(F)F [Example 113]
21,81.3,C[C@]12CC[C@@H]3c4ccc(O)cc4CC[C@H]3[C@@H]1[C@H](CCC(=O)NCc1ccc(O)c(O)c1)CC2(F)F [Example 127]
22,71.9,C[C@]12CC[C@@H]3c4ccc(O)cc4CC[C@H]3[C@@H]1[C@H](CCC(=O)N1CCCCC1)CC2(F)F [Example 131]
